Results taken from patent publication US20260200849A1, “CATIONIC LIPIDS AND PREPARATION METHOD THEREOF” (RiboX Therapeutics HK Limited, priority 2024, published 2026).
Several values for one entry are separate records, joined by “and”; a condition that tells them apart may be missing. Identical values can stand only once. Like-named read-outs stand apart in the source and are kept apart here.

How the values were obtained:
[1] = RNA encapsulation efficacy (EE %) by Quant-IT Ribogreen kit; assay type: physicochemical; conditions: LNP
Description: (§1) The LNP size and polydispersity index (PDI), determined by dynamic light scattering (DLS), and zeta potential were measured by a Zetasizer machine (Malvern). RNA concentration and encapsulation efficacy (EE %) were analyzed by the Quant-IT Ribogreen kit by calculating the percentage encapsulation at 100%—(RNA-LNPs/RNA-LNPs with Triton X-100).

Balb/c mice = assay: In vivo expression by IV, 0.05 mg/kg luciferase RNA-LNPs, IVIS luminescence; conditions: female Balb/c mice, 0.05 mg*kg−1 intravenous; for Liver (p/s) (Mean) / Spleen (p/s) (Mean) / Whole body (p/s) (Mean): Formulation No. 001, RNA No. 331, 24-hours post injection
Method in brief: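 IVIS bioluminescence was read after IP luciferin (15 mg/ml): whole-body at 24 and 72 h, or whole-body/liver/spleen at 24 h. Dosing was a single IV injection of 0.05 mg*kg−1 RNA-LNPs encoding firefly luciferase into 7-8 week old female Balb/c mice, N=3.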

Hep G2 cells [2] = assay: In vitro toxicity: Hep G2 cell viability by CellTiter-Glo; assay type: cell-based; conditions: 72 hours post transfection, cell only = 100%
Description: 2E5 Hep G2 cells were transfected with 1 μg/mL RNA-LNPs. At 72 hours post transfection, cell viability (2-well repeat) was determined with the CellTiter-Glo® reagent kit, according to the kit protocol, measured by a luminometer. Cell only as control (100%).
The cell viability was calculated according to the following formula: […]

C57BL/6J mice [3] = assay: In vivo expression by ID, whole-body/injection site skin/lymph node luminescence; conditions: intradermal 0.15 mg/kg, 72 h post injection, female C57BL/6J mice N=3, Formulation 001, RNA 331
Description: 7-8 week old, female C57BL/6J mice (N=3) were injected with 0.15 mg*kg−1 of RNA-LNPs encoding for firefly-luciferase by intradermal injection. At 72-hours post injection, animals were intraperitoneally injected with 15 mg/mi of Luciferin substrate and whole-body/injection site skin/lymph node luminescence were determined by a bioluminescent in vivo imaging system (IVIS).

Hep G2 cells [4] = assay: In vitro expression: luciferase activity in Hep G2 cells transfected with RNA-LNPs; assay type: cell-based; conditions: 100 ng/mL RNA-LNPs, 72 hours post transfection
Description: 2E5 Hep G2 cells were transfected with 100 ng/mL of RNA-LNPs encoding for firefly-luciferase. At 72 hours post transfection, the cells were washed and lysed. The luciferase expression (2-well repeat) was determined in the cell lysates with the luciferase assay reagent kit (Promega), according to the kit protocol, luciferase activity was measured by a luminometer.

injection site skin = assay: In vivo tolerability after intradermal injection: H&E staining of injection site skin; design: species or system C57BL/6J mice; key to Infiltration, mononuclear cells, dermis/subcutaneous, focal, Grade / Edema, subcutaneous, focal, Grade / Erosion, focal, Grade / Skin, Grade: 1==minimal; 2=mild; 3=moderate; 4=marked; 5=severe; N=Normal; NA=Not applicable; —=No data; conditions: intradermal 0.15 mg/kg, 72 h, Formulation 001, RNA 331
Description: 7-8 week old, female C57BL/6J mice (N=3) were injected with 0.15 mg*kg−1 of RNA-LNIPs encoding for firefly-luciferase by intradermal injection. At 72-hours post injection, injection site skin from each animal was collected in 10% formalin, for H&E staining. PBS group (N=2) as control. (Note: 1==minimal, 2=mild, 3=moderate, 4=marked, 5=severe; N=Normal; NA=Not applicable; —=No data)

[5] = LNP size and polydispersity index (PDI) by dynamic light scattering (Zetasizer); assay type: physicochemical; conditions: for Size (nm): RNA No. 331
Description: as §1

[6] = In vivo lipid metabolism by IV: ionizable lipid concentration in plasma and liver by LC-MS/MS; design: species or system Sprague-Dawley (SD) rats; conditions: IV 0.15 mg/kg RNA-LNPs (hEPO), male SD rats, individual animals N=3; for concentration at 6 h: male, Sprague-Dawley, rat, iv, 0.15 mg/kg
Description: In Vivo Lipid Metabolism by IV 7-8 week old, male Sprague-Dawley (SD) rats (N=3) were injected with 0.15 mg*kg−1 of RNA-LNPs encoding for hEPO by intravenous injection. At 1-/6-/96-/168-hours post injection, about 100 μL blood will be harvested and immediately added to the EDTAK2 containing tube. Place on wet ice and then centrifuged at 3000 g×5 min to obtain plasma. 30 μL plasma will be aliquoted to the 1.5 mL tubes. At terminal 6-/168-hours post injection, the rats will be euthanized with CO2, hemorrhaged immediately with cardiac puncture, respectively. The livers were harvested, weighed and washed with saline, then put into 50 ml centrifuge tube placed in liquid nitrogen, then transferred into wet ice, and finally stored at −80° C. immediately. Both plasma and liver samples were used for ionizable lipid concentration quantification by LC-MS/MS. The lower limit of quantitation (LLOQ) is 1 ng/mL in plasma or 11 ng/g in liver. BQL—Below the lower limit of quantitation (LLOQ).

C57BL/6J mice [7] = assay: In vivo expression by IV, 1.0 mg/kg luciferase RNA-LNPs, whole-body and organ IVIS luminescence; conditions: Formulation No. 001, RNA No. 331; male C57BL/6J mice, 1.0 mg*kg−1 intravenous, 24-hours post injection
Method in brief: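 Male C57BL/6J mice, 6-8 weeks old (N=3), received 1.0 mg*kg−1 firefly-luciferase RNA-LNPs IV. At 24 h post-dose, luciferin (15 mg/ml) was given IP, and whole-body, liver, spleen, kidney, small and large intestine luminescence was imaged by IVIS.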

IL-6 = assay: In vivo tolerability by IV: serum IL-6 by Luminex; design: species or system C57BL/6J mice; conditions: Formulation No. 001, RNA No. 331, male C57BL/6J mice, 1.0 mg*kg/1 intravenous; for IL-6 at 2 h: 2 hours post injection; for IL-6 at 24 h: 24 hours post injection
Method in brief: (§2)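 Male C57BL/6J mice aged 6-8 weeks (N=3) received 1.0 mg*kg−1 firefly-luciferase RNA-LNPs intravenously, with PBS as negative control. Serum taken at 2 and 24 h post-injection was assayed for MCP-1 and IL-6 by Luminex.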

MCP-1 = assay: In vivo tolerability by IV: serum MCP-1 by Luminex; design: species or system C57BL/6J mice; conditions: Formulation No. 001, RNA No. 331, male C57BL/6J mice, 1.0 mg*kg/1 intravenous; for MCP-1 at 2 h: 2 hours post injection; for MCP-1 at 24 h: 24 hours post injection
Method in brief: as §2

[8] = Formulation No. 001, RNA No. 331
[9] = Formulation No. 010, RNA No. 331
[10] = liver, 6 h post injection, read-out: Liver (ng/g), ionizable lipid concentration
[11] = Formulation No. 001, RNA No. 019 (hEPO)
[12] = Formulation No. 001, RNA No. 331, 1 μg/mL RNA-LNPs
[13] = Formulation No. 001, RNA No. 331 (firefly-luciferase)
[14] = Formulation No. 001 (Ionizable lipid:DSPC:cholesterol:DMG-PEG2000 = 50:10:38.5:1.5, N/P 6)

| SMILES | EE (%) [1, 8] | PDI [5, 8] | Plasma (ng/mL), ionizable lipid concentration ([6]; 1 h post injection) | Plasma (ng/mL), ionizable lipid concentration ([6]; 6 h post injection) | concentration at 6 h [6, 10] | EE (%) [1, 11] | Liver (p/s) (Mean) (Balb/c mice) | Spleen (p/s) (Mean) (Balb/c mice) | Whole body (p/s) (Mean) (Balb/c mice) | Kidney (p/s) (C57BL/6J mice [7]) | Large intestine (p/s) (C57BL/6J mice [7]) | Liver (p/s) (C57BL/6J mice [7]) | Small intestine (p/s) (C57BL/6J mice [7]) | Spleen (p/s) (C57BL/6J mice [7]) | Whole body (p/s) (C57BL/6J mice [7]) | In vitro cell viability (%) (Mean) (Hep G2 cells [2]; [12]) | In vitro Expression (Mean) (Hep G2 cells [4]; [13]) | IL-6 at 2 h (IL-6) | IL-6 at 24 h (IL-6) | MCP-1 at 2 h (MCP-1) | further results |
| --- | --- | --- | --- | --- | --- | --- | --- | --- | --- | --- | --- | --- | --- | --- | --- | --- | --- | --- | --- | --- | --- |
| CCCCC/C=C\C/C=C\CCCCCCCC(=O)NC(COC(=O)NCCN1CCCCCC1)C(=O)OCCCCCC(=O)OCC(CCCCCCCC)CCCCCCCCCC (stereo not shown) [Lipid 729] | 95.62% | 0.08 |  |  |  |  |  |  |  |  |  |  |  |  |  |  |  |  |  |  | EE (%) [1, 9]: 95.94%; Whole body at 24 h (p/s) (Mean) (Balb/c mice; Formulation No. 010, RNA No. 331, 24 hours post injection): 1.86E+08 p/s; Whole body at 72 h (p/s) (Mean) (Balb/c mice; Formulation No. 010, RNA No. 331, 72 hours post injection): 4.99E+07 p/s; In vitro cell viability (%) (Mean) (Hep G2 cells [2]; 1 μg/mL RNA-LNPs, Formulation 001, RNA 331): 65.07%; In vitro cell viability (%) (Mean) (Hep G2 cells [2]; Formulation No. 010, RNA No. 331, 1 μg/mL RNA-LNPs): 80.55%; Injection site Skin (p/s) (C57BL/6J mice [3]): 1.33E+07 p/s; Lymph node (p/s) (C57BL/6J mice [3]): 1.42E+06 p/s; Whole body (p/s) (C57BL/6J mice [3]): 6.76E+07 p/s; In vitro Expression (Mean) (Hep G2 cells [4]; Formulation 001, RNA 331): 1.64E+05; In vitro Expression (Mean) (Hep G2 cells [4]; Formulation No. 010, RNA No. 331 (firefly-luciferase)): 3.44E+05; Edema, subcutaneous, focal, Grade (injection site skin; per animal): 1 (2×) and —; Erosion, focal, Grade (injection site skin; per animal): —; Infiltration, mononuclear cells, dermis/subcutaneous, focal, Grade (injection site skin; per animal): 1; Total score (injection site skin; sum of lesion grades of the group (N=3)): 5; Size [5, 8]: 71.29 nm; Size (nm) ([5]; Formulation No. 010 (Ionizable lipid:DSPC:cholesterol:DSPE-PEG2000 = 38:30:30:2, N/P 6)): 57.90 nm; PDI [5, 9]: 0.10 |
| CCCCCCCCCCCOC(=O)CCCCCOC(=O)C(COC(=O)NCCN1CCCCCC1)NC(=O)OCCCCCCCCOC(=O)C(CCCCCC)CCCCCCCC (stereo not shown) [Lipid 924] | 90.24% | 0.05 | 5572 ng/mL and 3130 ng/mL and 7622 ng/mL | 2.59 ng/mL and 3.41 ng/mL and 298 ng/mL | 1410 ng/g | 90.41% | 9.02E+08 p/s | 2.37E+08 p/s | 3.08E+09 p/s | 3.17E+07 p/s | 3.25E+08 p/s | 5.23E+09 p/s | 7.18E+08 p/s | 1.13E+09 p/s | 4.40E+09 p/s | 89.34% | 6.15E+05 | 47.1 pg/mL | 5.9 pg/mL | 1390 pg/mL | Liver (ng/g), ionizable lipid concentration ([6]; 6 h post injection): 1864 ng/g and 1834 ng/g; MCP-1 at 24 h (MCP-1): 207 pg/mL; Size (nm) [5, 14]: 78.20 nm; PDI [5, 11]: 0.16; Size [5, 11]: 87.04 nm |
| CCCCCCCCCC(=O)OCCCCCCCOC(=O)C(COC(=O)NCCN1CCCCCC1)NC(=O)OCCCCCCCCOC(=O)C(CCCCCC)CCCCCCCC (stereo not shown) [Lipid 934] | 95.74% | 0.03 | 3316 ng/mL and 5944 ng/mL and 9980 ng/mL | 691 ng/mL and 8.59 ng/mL | 14 ng/g | 93.44% | 6.73E+08 p/s | 2.04E+08 p/s | 1.87E+09 p/s | 4.10E+07 p/s | 1.17E+08 p/s | 1.82E+09 p/s | 6.60E+08 p/s | 1.17E+09 p/s | 2.46E+09 p/s | 94.29% | 5.28E+05 | 40.7 pg/mL | 7.83 pg/mL | 1360 pg/mL | MCP-1 at 24 h (MCP-1): 229 pg/mL; Size (nm) [5, 14]: 70.72 nm; PDI [5, 11]: 0.08; Size [5, 11]: 70.30 nm |
| CCCCC/C=C\CCOC(=O)CCCCCOC(=O)C(COC(=O)NCCN1CCCCCC1)NC(=O)OCCCCCCCCOC(=O)C(CCCCCC)CCCCCCCC (stereo not shown) [Lipid 955] | 91.27% | 0.03 | 6059 ng/mL and 23590 ng/mL and 15983 ng/mL | 11.9 ng/mL and 22 ng/mL | 668 ng/g | 93.99% | 7.00E+08 p/s | 9.11E+07 p/s | 2.15E+09 p/s | 4.80E+07 p/s | 3.44E+08 p/s | 1.98E+09 p/s | 6.59E+08 p/s | 2.12E+09 p/s | 4.06E+09 p/s | 95.28% | 2.53E+05 | 1140 pg/mL | 7.13 pg/mL | 3350 pg/mL | Liver (ng/g), ionizable lipid concentration ([6]; 6 h post injection): 703 ng/g and 396 ng/g; concentration at 6 h ([6]; plasma, 6 h post injection, read-out: Plasma (ng/mL), ionizable lipid concentration): 17 ng/mL; MCP-1 at 24 h (MCP-1): 580 pg/mL; Size (nm) [5, 14]: 81.86 nm; PDI [5, 11]: 0.14; Size [5, 11]: 90.32 nm |
